Measurements as given in US20090023696A1, “USE OF C3-C10 17ALFA-ESTERS OF 9,11-DEHYDROCORTEXOLONE AS ANTI-GONADOTROPHIC AGENTS” (COSMO BIO-TECHNOLOGIES SRL, priority 2005, published 2009).
“And” between values parts separate entries of the source, which are not always exact repeats. Equal entries are not always repeated. “Also recorded” adds a separate entry of the source. Marks after values point to notes of the source that are not given here.

System: hypersecretion of gonadotrophin in the parabiotic rat
Experiment: Hypersecretion of gonadotrophin induced by castration in parabiotic rats (ovarian weight)
Format: in vivo, Wistar rats
Conditions: for Inhibition of ovarian weight (%): subcutaneously into castrated males; for anti-gonadotrophic effect (inhibitory effect on gonadotrophin secretion), in words: overall conclusion from Table 1
Experimental: The anti-gonadotrophic action was evaluated in an animal model by evaluation of the hypersecretion of the gonads induced by castration in parabiotic rats (Shipley E. G., in: Methods in Hormone Research, R. L Dorfman (ed.), vol. 2, pp 179-274. Academic Press, New York and London, 1962). The results of the inhibitory action of […] 17α-butyrate on the gonads are shown below in Table 1. Wistar rats of both sexes with body weights of 50-60 g were used. The males were castrated and, on the next day, were surgically united along the lateral body wall with intact females (parabiosis). In this experimental procedure, the castration of the males induces in them an immediate hypersecretion of gonadotrophin, which, on reaching the female via the parabiotic union, stimulates ovarian growth. […] Progesterone was used as a positive control and was administered by the same procedure, in doses of 0.5 and 2 mg. Additional groups of pairs including intact males/intact females and castrated males/intact females were treated with the vehicle only and used as a control. At the end of the treatment period, the pairs were killed and autopsies performed. The ovaries and uteruses of each female rate were isolated and weighed. The inhibitory action causing hypersecretion of gonadotrophin due to castration was evaluated via the capacity of the tested compound to oppose the increase of weight of the ovaries.

Row | Structure (SMILES) | Inhibition of ovarian weight (%) (daily dose 1 mg) | Inhibition of ovarian weight (%) (daily dose 5 mg) | anti-gonadotrophic effect (inhibitory effect on gonadotrophin secretion), in words | Inhibition of ovarian weight (%) (daily dose 0.5 mg) | Inhibition of ovarian weight (%) (daily dose 2 mg)
1 | CCCC(=O)O[C@]1(C(=O)CO)CCC2C3CCC4=CC(=O)CCC4(C)C3=CCC21C (stereo partly drawn) [9,11-dehydrocortexolone 17α-butyrate] | 59% and 59^a % | 96% and 96^a % | strong and significant dose-correlated inhibitory effect on gonadotrophin secretion; also recorded: comparable to that shown by comparable doses of progesterone |  | 
2 | CCC(=O)O[C@]1(C(=O)CO)CC[C@H]2[C@@H]3CCC4=CC(=O)CC[C@]4(C)[C@H]3CC[C@@]21C [cortexolone 17α-propionate, reference compound] | 5% | 5% | no anti-gonadotrophic action at all |  | 
3 | CC(=O)[C@H]1CC[C@H]2[C@@H]3CCC4=CC(=O)CC[C@]4(C)[C@H]3CC[C@]12C [progesterone, reference compound] |  |  |  | 38^b % | 66^a %
